The values that follow come from patent US10653672B2, “Myogenesis promotor, muscle atrophy inhibitor, medical composition and TAZ activator” (National University Corporation Tokyo Medical and Dental …, priority 2014, dated 2020).

Structures are written as SMILES. Where “and” joins values, the source holds several entries; their conditions need not be identical. Equal values may be shown once.

For one data set, the system named is C2C12 cells. The data set can be described thus: Evaluation of muscle differentiation markers by immunoblotting. In kind it is cell-based, mouse. The settings on record: 10 μM. How it is done:
(1) C2C12 cells were cultured for 24 hours under growth condition in a culture medium added with IBS008738 or DMSO at a concentration of 10 μM, and switched to differentiation condition and the cultivation was continued. The expression of markers indicating muscle differentiation was determined with a predetermined antibody, on the C2C12 cells immediately after the completion of cultivation under growth condition (0 h), 24 hours after switching to differentiation condition (24 h), 48 hours after switching to differentiation condition (48 h) and 72 hours after switching to differentiation condition (72 h), respectively. Tubulin was used as a loading control (FIG. 3A).
Background: In western blotting, separated proteins are transferred to a membrane and probed.

The subject of another data set is cyclin D1. The data set can be described thus: Quantitative real-time PCR, cyclin D1. In kind it is cell-based, mouse. Conditions: C2C12 cells, 10 μM; for Normarized mRNA abundance, CyclinD1: listed as IBS008738. How it is done:
(§1) (1) Quantitative real-time PCR was performed with C2C12 cells immediately before the induction of muscle formation (0 h), and after culturing under differentiation condition in a culture medium added with IBS008738 or DMSO at a concentration of 10 μM for 24 hours (24 h) and 72 hours (72 h), respectively. […] The line and error bar indicate the average value and the standard error, **p<0.05, and ns refers to not significant.
(2) Evaluation was also performed under the same condition on the connective tissue growth factor (CTGF) and cyclin D1, as TAZ targets in epidermal cells.
(§2) The quantitative real-time PCR was performed with SYBER Green (Roche) and ABI7500 Realtime PCR system (Applied Biosystems).
On the technique in general: Real-time PCR tracks product formation cycle by cycle.

A further data set relates to M-cadherin. The data set can be described thus: Quantitative real-time PCR, M-cadherin. Conditions: C2C12 cells, 10 μM; for Normarized mRNA abundance, M-cadherin: listed as IBS008738. In kind it is cell-based, mouse. How it is done:
as §1
(§3) Evaluation was also performed under the same condition on M-cadherin, calpain 1 and caveolin 3, which are myofusion markers. As a result, there was no increase in the degree of gene transcription in the case with IBS008738.
as §2

A further data set relates to calpain 1. The data set is described as follows: Quantitative real-time PCR, calpain 1. The settings on record: C2C12 cells, 10 μM; for Normarized mRNA abundance, Calpain1: listed as IBS008738. In kind it is cell-based, mouse. How it is done: as §1, §3, §2
A further data set has as its system Pax3 reporter. The data set is described as follows: Luciferase reporter assay, Pax3 reporter. In kind it is cell-based. The settings on record: Mus musculus, C2C12, 24 h, C2C12 cells expressing reporter and TAZ WT, differentiation medium 24 hours. How it is done: (§4) The effect and its degree on the activity of a reporter, derived from a transcription factor that interacts with TAZ in C2C12 cells, were evaluated. Specifically, C2C12 cells expressing luciferase reporters corresponding to MyoD, TEAD, SMAD and Pax3 and C2C12 cells expressing these luciferase reporters and TAZ were cultured in a culture medium added with IBS008738 or DMSO at a concentration of 10 μM, respectively. […] The line and the error bar indicate the average value and the standard error, *p<0.05, **p<0.01, ns refers to not significant.
(§5) Transfection of the luciferase reporters was performed to the C2C12 cells after being plated at 12-well plates (1×10^5 cells/well) and cultured overnight. As the luciferase reporters, pGL3 Myo-184- (MyoD-), 8×GT-IIC-δ51LucII- (TEAD-), 9×CAGA-MLP-(SMAD-), and p(PRS-1/-4)3- (Pax3-) were transfected to the cells alone or with TAZ. These reporter vectors were from Keiji Miyazawa (Yamanashi University), Hiroshi Sasaki (Kumamoto University) and Hiroki Kurihara (The University of Tokyo).
(§6) Immediately after the transfection, DMSO or IBS008738 was added at a concentration of 10 μM, respectively. After growing the cells to confluence, the cells were transferred to a differentiation medium with DMSO or IBS008738, and cultured for 24 hours before the luciferase assay.

In a further data set the test system is SMAD reporter. The data set can be described thus: Luciferase reporter assay, SMAD reporter. In kind it is cell-based. The settings on record: Mus musculus, C2C12, 24 h, C2C12 cells expressing reporter and TAZ WT, differentiation medium 24 hours. How it is done: as §4, §5, §6
A general note: A reporter such as luciferase makes a cellular process visible.

Data set [1] has as its system A431 cells. The data set can be described thus: Immunoblotting of EMT markers in A431 cells. In kind it is cell-based. How it is done: (§7) (1) A431 cells, (epidermoid carcinoma), A549 cells (adenocarcinomic human alveolar basal epithelial cell) and HCT116 cells (human colon cancer) were treated with IBS008738 or DMSO, respectively, and evaluated by immunoblotting.
(§8) HEK293, A431, A549, HCT116, MCF7 and SW480 cells were cultured in Dulbecco's Modified Eagle Medium (DMEM) containing 10% fetal bovine serum (FBS), 10 mM HEPES-NaOH at pH 7.4, 100 U/ml penicillin and 100 mg/I streptomycin under 5% CO2 at 37° C.

A further data set has as its system A549 cells. The data set is described as follows: Immunoblotting of EMT markers in A549 cells. In kind it is cell-based, human. How it is done: as §7, §8
Data set [2] concerns A431 cells. The data set is described as follows: Tumor sphere formation of A431 cells. In kind it is cell-based. Conditions: Ultra Low Attachment plate, serum-free medium, 10 μM, 10 days, maximum diameter of 30 cell aggregates. How it is done:
(2) Each well of a 96-well plate was pre-coated with 30 μL BD Matrigel (trade name, Becton, Dickinson and Company). A431 cells were suspended in the 2% BD Matrigel at a concentration of 2.1×10^6 cells/mL. This cell solution (140 μL) was added with 0.17 μL of 10 mM IBS008739 stock solution in DMSO or 0.17 μL of DMSO, and used to layer the pre-coated wells, and proliferation in the 3D matrigel was observed (see FIG. 12B). 300 of A431 cells were placed in each well of Ultra Low Attachment 96-well plate, and cultured in a serum-free DMEM-F-12 medium containing 10 ng/mL FGF, 5 μg/mL insulin and 0.1% (w/v) BSA. Formation of tumor spheres was observed under the condition with 10 mM IBS008739 stock solution dissolved in DMSO so that the final concentration was 10 μM, or the condition with DMSO of the same volume (see FIG. 12C). The maximum diameter of 30 cell aggregates of 150 μm or more observed in the 3D matrigel or sphere formation condition) are measured as the size of 3D colony or sphere. The results are shown in Table 10 and FIGS. 12B and 12C. The line in the figure is 200 μm. The line and the error bar indicate the average value and the standard error, and ns refers to not significant.
Observation of the spheres and the 3D matrigel cultivation were performed by the following processes. […]

What is called fold induction is the signal under treatment as a multiple of the control signal. Turning to `Cc1ccc(-n2cnc(/N=C/N3CCOCC3)c2C(=O)c2ccccc2)cc1` [exemplary compound 1], the “decrease in the expression of Pax7 compared with DMSO” value with C2C12 cells is listed as “faster to decrease”. Besides, the “expression of MHC compared with DMSO” value in the data set on C2C12 cells is “became significant on days 3 and 4”. The “expression of TAZ” value with C2C12 cells is listed as “became most significant on day 2”. The “expression of myogenin compared with DMSO” value in the data set on C2C12 cells is “became stronger after day 2”. In the data set with C2C12 cells (day 1 after the addition), the “expression of MyoD compared with DMSO” value is reported as “slightly higher”. Besides, the “gene transcription of cyclin D1 compared with DMSO” value in the data set on cyclin D1 (24 h and 72 h) is on record as “no significant difference”. In addition, the “Normarized mRNA abundance, CyclinD1” value was 0.95 and 0.83 and 0.78 with cyclin D1 (differentiation condition 24 h); 0.62 and 0.60 and 0.61 with cyclin D1 (differentiation condition 72 h). The “degree of gene transcription of M-cadherin” value in the data set on M-cadherin (24 h and 72 h) was “no increase”. Moreover, the “Normarized mRNA abundance, M-cadherin” value is 1.66 and 1.61 and 1.64 in the data set with M-cadherin (differentiation condition 24 h); 0.82 and 0.87 and 0.80 in the data set on M-cadherin (differentiation condition 72 h). In addition, the “degree of gene transcription of calpain 1” value in the data set with calpain 1 (24 h and 72 h) was “no increase”. In addition, the “Normarized mRNA abundance, Calpain1” value in the data set with calpain 1 (differentiation condition 24 h) is 0.84 and 0.81 and 0.98; in the data set with calpain 1 (differentiation condition 72 h), 1.15 and 1.18 and 1.22. Further, the values for the fold induction at 10 µM in the data set with Pax3 reporter and in the data set on SMAD reporter were 0.8 and 2.09, respectively. Moreover, the “EMT markers (fibronectin, E-cadherin, N-cadherin and vimentin) compared with DMSO” value in the data set with A431 cells [1] and with A549 cells was “no significant difference” throughout. Besides, in the data set on A431 cells [2], the “Sphere size, average size (μm)” value was 176.63 μm.
